Consider five molecules from patent US20240352409A1, “CELL SEEDING AGENT AND SUBSTRATE FOR CELL TRANSPLANTATION USE” (CELLUSION INC., priority 2021, published 2024).

Assay [1] deals with iPS cell-derived corneal endothelial substitute cells. Kind of assay: Influence of ROCK inhibitor on tight junction formation (ZO-1 expression) during passage operation in differentiation induction. Format: cell-based. Conditions: 10 μM Y-27632 during passage operation; FIG. 1. The method, then:
An influence of a ROCK inhibitor during the passage operation in the differentiation induction step of iPS cell-derived corneal endothelial substitute cells was investigated. According to Example 1 and Experimental Example 2 of Patent Literature 3 (10 μM Y-27632 was used as ROCK inhibitor instead of fasudil), the expression of ZO-1 was investigated.

The test system of assay [2] is iPS cells (FF-101s04 strain). Kind of assay: Engraftment of iPS cells seeded in phenolphthalein derivative-added cell seeding agents (differentiation induction, fixed or changed seeding density). The assay is classed as cell-based. Conditions: derivative 0.22 mM, day 7; for cell engraftment at specified seeding density: seeded at 1.04×10^4 cells/cm^2; for cell engraftment at seeding number lower than specified density: seeding density lower than 1.04×10^4 cells/cm^2. The procedure:
T12.5 flask (Corning Incorporated/353107) was coated with iMatrix511 (MATRIXOME, Inc./892005) at a concentration of 6 μg/mL. iPS cells (FF-101s04 strain) were suspended in AK03N+Y medium at a density of 8.0×10^3 cells/cm^2, and were seeded into the T12.5 flask. Culture was started in a CO2 incubator at 37° C., and the medium was replaced the next day with AK03N medium not containing Y-27632. After a gap of 2 days, medium exchange was performed for 2 consecutive days, and passage was performed on the 6th day of culture.
A T25 flask (Sumitomo Bakelite Co., Ltd./MS-23050) was coated with iMatrix511 (MATRIXOME, Inc./892005) at a concentration of 6 μg/mL. iPS cells were suspended in AK03N+Y medium at a density of 2.2×10^3 cells/cm^2, and were seeded into the T25 flask. Culture was started in a CO2 incubator at 37° C., and the medium was replaced the next day with AK03N medium not containing Y-27632. After a gap of 2 days, medium exchange was performed for 2 consecutive days, and passage was performed on the 6th day of culture.
DMEM/F12 non phenol red (Thermo Fisher Scientific, Inc./11039-021) was used as the basal medium, and a phenol red-free corneal endothelial substitute cell induction medium was prepared (hereinafter also to be referred to as phenol red-free medium in this Example). To the basal medium (500 mL) were added, as additives, ITS-Supplement (Ventria/777ITS091), IGF1 (OrphanPacific, Inc.; Somazone for injection/858100075, 1 mg/mL), LIF (FUJIFILM Wako Pure Chemical Corporation/125-06661), IL-6 (Miltenyi Biotec/170-076-161), IL-11 (Pepro tech/AF-200-11), TNFα (Miltenyi Biotec/170-076-178), and water-soluble HYDROCORTONE Injection (Nichi-Iko Pharmaceutical Co., Ltd./27126333) described in the following Table 1.
The phenolphthalein derivatives shown in the following Table 2, B to D, were dissolved in advance in ethanol to a concentration of 6.6×10^−6 mol/mL. 30 mL each of the phenol red-free corneal endothelial substitute cell induction medium prepared in the above-mentioned 2. was dispensed into four 50 mL tubes, and 40.5 μL of A phenolsulfonphthalein injection 0.6% (AFP) was added to one of the four tubes. Furthermore, 100 μL of B cresol red solution with adjusted concentration was added to one of the remaining three tubes. Similarly, C thymol blue solution and D bromocresol purple solution were respectively added to the remaining two tubes. A total of four different phenolphthalein derivative-containing media were prepared and used as phenolphthalein derivative-added cell seeding agents. Each seeding agent was adjusted to have a phenolphthalein derivative concentration of 0.22 mM. […]

Assay [3] concerns iPS cell-derived corneal endothelial substitute cells. Nature of the assay: Influence of phenol red in cell seeding agent on engraftment, recovered cell number and survival rate in differentiation induction step. Format: cell-based. Conditions: with vs without phenol red. The method, then: When induction into corneal endothelial substitute cell was started, iPS cells recovered using TrypLE-Select (Thermo Fisher Scientific) were suspended in a phenol red-added cell seeding agent or phenol red no-addition cell seeding agent. A 100 mm culture dish (Sumitomo Bakelite Co., Ltd.) was coated with iMatrix 511 at a concentration of 3 μg/ml, and iPS cells suspended in each cell seeding agent were seeded at a density of 1.0×10^4 cells/cm^2. Culture was started in a CO2 incubator at 37° C., and thereafter, the medium was replaced with phenol red-added corneal endothelial substitute cell induction medium or phenol red no-addition corneal endothelial substitute cell induction medium at a frequency of once every 2 to 3 days thereafter. Culture was performed for 14 days under the above-mentioned conditions in each medium for inducing corneal endothelial substitute cells. After 3, 5, and 7 days of culture, the state of the cells was confirmed under a microscope (FIG. 2A). After culturing for 14 days, for the groups in which cell engraftment was observed under a microscope, the cells were collected and the number of cells was counted. The cells were collected after removing the culture supernatant, washed twice using DPBS (−) (Thermo Fisher Scientific), detached using Accutase (Innovative Cell Technologies), and collected into a centrifuge tube. The cells collected into the centrifuge tube were separated by centrifugation, and after adjusting the cell concentration using a medium and the like, the cell concentration and survival rate were measured using an automatic cell counter (ChemoMetec) (FIG. 2B).

For assay [4], the system named is Macaca fascicularis bullous keratopathy model. Nature of the assay: Transplantation of corneal endothelial substitute cell suspension into anterior chamber of bullous keratopathy model. Format: in vivo. The method, then: A cell suspension of iPS cell-derived corneal endothelial substitute cells (8×10^5 cells/160 μl) obtained in Example 1 was transplanted to the anterior chamber of a Macaca fascicularis bullous keratopathy model (conducted by SHIN NIPPON BIOMEDICAL LABORATORIES, LTD.). Two types of substrates for transplantation (containing insulin, insulin-like growth factor, and the like) were prepared: one with and one without the addition of phenol red. The corneal endothelial substitute cell suspension was transplanted into the anterior chamber of the eye by the following procedure. • (1) Corneal endothelial substitute cells suspended in two types of substrates for transplantation, with and without phenol red added, were injected into the anterior chamber using a 27-gauge syringe. • (2) Macaca fascicularis was placed face down for 3 hr. • (3) After 28 days of observation, the eyeballs were collected and observed macroscopically and microscopically. Formation of a corneal endothelial substitute cell layer and corneal thickness were measured for the transplanted eye. Corneal thickness was measured using a corneal thickness measuring device (Tomey Corporation; SP-100).

Entries after “also recorded” stand apart in the source; their conditions may differ.

On to `C[C@@H](N)[C@H]1CC[C@H](C(=O)Nc2ccncc2)CC1` [Y-27632], for which, in assay [1], the “cell transformation (epithelial-to-mesenchymal transition)” value is “causes transformation that appears to be epithelial-to-mesenchymal transition” and the “formation of tight junction (expression of ZO-1)” value is recorded as “formation of tight junction was inhibited; also recorded: inhibits the formation of tight junction”.

Turning to `Cc1cc(C2(c3cc(C)c(O)c(Br)c3)OS(=O)(=O)c3ccccc32)cc(Br)c1O` [bromocresol purple], the “cell engraftment at specified seeding density” value in assay [2] is on record as “Engraftment was also confirmed”.

As for `Cc1cc(C2(c3ccc(O)c(C)c3)OS(=O)(=O)c3ccccc32)ccc1O` [cresol red], the “cell engraftment at seeding number lower than specified density” value in assay [2] is reported as “cell engraftment was confirmed”.

Consider `O=S1(=O)OC(c2ccc(O)cc2)(c2ccc(O)cc2)c2ccccc21` [phenol red, phenolsulfonphthalein], for which the “cell engraftment at seeding number lower than specified density” value in assay [2] was “cell engraftment was confirmed”. Besides, the “engraftment of cells after seeding (microscope)” value in assay [3] (3rd, 5th, 7th day of culture, seeded at 1.0×10^4 cells/cm^2, FIG. 2A) is recorded as “Engraftment was clearly better”. Moreover, in assay [3] (day 14 of culture, FIG. 2B), the “number of recovered viable cells” value was “clearly superior” and the survival rate entry was “clearly superior”. In addition, in assay [4] (8×10^5 cells/160 μl into anterior chamber, substrate with phenol red, 28 days observation, FIG. 4), the “engraftment and distribution of transplanted cells on posterior cornea” value was “engrafted on the posterior cornea and spread uniformly”. Besides, the corneal thickness entry in assay [4] (substrate for transplantation with phenol red, FIG. 3) is “a decrease in corneal thickness was observed; also recorded: corneal thickness decreased”. For the same molecule, the corneal edema result in assay [4] (substrate for transplantation with phenol red, judged from corneal thickness, FIG. 3) is on record as “corneal edema was improved; also recorded: corneal edema-improving effect was observed”.

`Cc1cc(O)c(C(C)C)cc1C1(c2cc(C(C)C)c(O)cc2C)OS(=O)(=O)c2ccccc21` [thymol blue]: the “cell engraftment at specified seeding density” value in assay [2] is “Engraftment was also confirmed”.
